According to article PMC3608651, “A Broad Profile of Co-Dominant Epitopes Shapes the Peripheral Mycobacterium tuberculosis Specific CD8+ T-Cell Immune Response in South African Patients with Active Tuberculosis” (PLoS ONE, 2013):
Like-named read-outs stand apart in the source and are kept apart here.

Assays:
Type in all cases: binding
HLA-A*02:01 [1] = target: T1, HLA-A*02:01 (Homo sapiens, UniProt P04439, D140Y/D185E/D98H/E176V/E277Q/G131W/G231S/I119V/I121R/I166T/I218V/L300P/L318F/N151K/N90K/P208A/P217A/Q86G/Q94H/R138H/R169H/T345S)
HLA-A*30:01 = HLA-A*30:01 (Homo sapiens, UniProt P04439, D140H/D185E/E176W/F33S/G80R/H175R/K168Q/R138E/R41S); conditions: duplicated experiments, positive binder >40%
HLA-A*30:02 [2] = target: T2, HLA-A*30:02 (Homo sapiens, UniProt P04439, D101N/D140H/D185E/E176R/F33S/G80R/H175R/K168Q/Q94H/R138E/R41S/V100E); conditions: duplicated experiments, positive binder >40%
HLA-B*07:02 = HLA-B*07:02 (Homo sapiens, UniProt P01889); conditions: percent relative the binding of positive control peptide […]; duplicated experiments; positive binder >40%
HLA-A*24:02 [3] = target: T3, HLA-A*24:02 (Homo sapiens, UniProt P04439, D101N/D140Y/D185E/E176V/E190D/F33S/G103R/G107R/I119L/I121M/I306V/K335N/L105A/L180Q/L300P/N151K/N90K/Q86E/Q94H/R106L/R138H/R89G/T104I/T345S/V100E/W191G/Y123F)
HLA-B*58:01 [4] = target: T4, HLA-B*58:01 (Homo sapiens, UniProt P01889, A329T/C349S/D201E/D98Y/E176V/E187L/E204Q/E69T/G107R/I218V/I90N/K202T/L105A/L119I/N104I/N87E/Q89R/Q94S/R106L/R155S/R180L/R86G/S101N/S121R/S35A/S48A/T118I/V127L/V306I/V36M/Y140S/Y91M); conditions: duplicated experiments, positive binder >40%
HLA-A*24:02 [5] = target: T3, HLA-A*24:02; conditions: duplicated experiments, positive binder >40%
HLA-C*07:01 = HLA-C*07:01 (Homo sapiens, UniProt P10321, K90N/S123Y); conditions: duplicated experiments, positive binder >40%
HLA-A*24:02 [6] = target: T3, HLA-A*24:02; conditions: time points 0-8 h
HLA-A*68:01 = HLA-A*68:01 (Homo sapiens, UniProt P04439, A269V/D185E/E176V/E277Q/E87N/F33Y/G231S/I121M/I166T/I218V/L180W/L300P/L318F/N151K/P208A/P217A/Q86R/R169H/T345S); conditions: duplicated experiments, positive binder >40%
HLA-A*02:01 [7] = target: T1, HLA-A*02:01; conditions: time points 0-8 h; time when 50% of peptide has dissociated
HLA-B*58:01 [8] = target: T4, HLA-B*58:01
HLA-A*02:01 [9] = target: T1, HLA-A*02:01; conditions: […]; peptide quantity for 50% binding saturation
HLA-B*58:01 [10] = target: T4, HLA-B*58:01; conditions: time points 0-8 h
HLA-A*30:02 [11] = target: T2, HLA-A*30:02; conditions: time points 0-8 h
HLA-A*30:02 [12] = target: T2, HLA-A*30:02
[13] = percent relative the binding of positive control peptide FLPSDFFPSV, plate-bound monomer 0.5 µg/ml, duplicated experiments, positive binder >40%
[14] = percent relative the binding of positive control peptide KTKDIVNGL
[15] = percent relative the binding of positive control peptide KIQNFRVYY
[16] = peptide titrated 10−4 to 10−9 M
[17] = percent relative the binding of positive control peptide IAMESIVIW
[18] = percent relative the binding of positive control peptide RYLKDQQLL
[19] = percent relative the binding of positive control peptide KYFDEHYEY
[20] = percent relative the binding of positive control peptide KTGGPIYKR
[21] = percent relative the binding of positive control peptide […], plate-bound monomer 0.5 µg/ml, duplicated experiments, positive binder >40%
[22] = percent relative the binding of positive control peptide […]

Substance | Bind B*07:02 (HLA-B*07:02) [%] | O-rate A*24:02 (t1/2) (HLA-A*24:02 [6]) [min] | Bind A*02:01 (HLA-A*02:01 [1]; [21]) [%] | Bind A*30:01 (HLA-A*30:01; [22]) [%] | Bind A*30:02 (HLA-A*30:02 [2]; [22]) [%] | Aff A*24:02 (ED50) (HLA-A*24:02 [3]) | Bind B*58:01 (HLA-B*58:01 [4]; [22]) [%] | Bind A*24:02 (HLA-A*24:02 [5]; [22]) [%] | Bind C*07:01 (HLA-C*07:01; [22]) [%] | Bind A*68:01 (HLA-A*68:01; [22]) [%] | also measured
AYQGVQQKW [Rv3875_50–58] | 10 | 24 | – | – | – | – | – | – | – | – | Bind A*02:01 (HLA-A*02:01 [1]; [13]): 0%; Bind A*30:01 (HLA-A*30:01; [14]): 0%; Bind A*30:02 (HLA-A*30:02 [2]; [15]): 33%; Aff A*24:02 (ED50) (HLA-A*24:02 [3]; [16]): 1e-08 M; Bind B*58:01 (HLA-B*58:01 [4]; [17]): 35%; Bind A*24:02 (HLA-A*24:02 [5]; [18]): 60%; Bind C*07:01 (HLA-C*07:01; [19]): 0%; Bind A*68:01 (HLA-A*68:01; [20]): 6%
GWDINTPAF | 22 | 66 | 0 | 11 | 0 | 1E -07 M | 0 | 146 | 10 | 5 | –
GYAGTLQNL [Rv0288_20–28m1] | – | 18 | – | – | – | 1e-07 M | – | 68 | – | – | –
IMYNYPTML [Rv0288_4–12m1] | 7 | 30 | 88 | 28 | 15 | 8e-07 M | 37 | 43 | 5 | – | O-rate A*02:01 (t1/2) (HLA-A*02:01 [7]): 240 min; Aff B*58:01 (ED50) (HLA-B*58:01 [8]): 0.0003 M; Aff A*02:01 (ED50) (HLA-A*02:01 [9]): 400 nM
KAGCQTYKW | 9 | 114 | 22 | 13 | 45 | 7E -08 M | 193 | 140 | 31 | 25 | O-rate B*58:01 (t1/2) (HLA-B*58:01 [10]): 480 min; Aff B*58:01 (ED50) (HLA-B*58:01 [8]): 3E -08 M
MYNYPAMLD [Rv0288_5–13m2] | – | 24 | – | – | 59 | 3e-08 M | – | 60 | – | – | O-rate A*30:02 (t1/2) (HLA-A*30:02 [11]): 42 min; Aff A*30:02 (ED50) (HLA-A*30:02 [12]): 2e-06 M
MYNYPTMLD [Rv0288_5–13m3] | – | 30 | – | – | 0 | 2e-08 M | – | 76 | – | – | –
MYNYPTMLG [Rv0288_5–13m1] | – | 30 | – | – | 23 | 2e-07 M | – | 47 | – | – | –
QIMYNYPTM [Rv0288_3–11m1] | 5 | 30 | 51 | 12 | 23 | 2e-06 M | 9 | 40 | – | – | O-rate A*02:01 (t1/2) (HLA-A*02:01 [7]): 42 min; Aff A*02:01 (ED50) (HLA-A*02:01 [9]): 3000 nM
QWLSANRAV | 25 | 24 | 21 | 39 | 120 | 2e-06 M | 0 | 110 | 11 | 13 | O-rate A*30:02 (t1/2) (HLA-A*30:02 [11]): 72 min; Aff A*30:02 (ED50) (HLA-A*30:02 [12]): 7E -08 M
SGSEAYQGV [Rv3875_46–54] | 9 | 30 | – | – | – | – | – | – | – | – | Bind A*02:01 (HLA-A*02:01 [1]; [13]): 22%; Bind A*30:01 (HLA-A*30:01; [14]): 0%; Bind A*30:02 (HLA-A*30:02 [2]; [15]): 0%; Aff A*24:02 (ED50) (HLA-A*24:02 [3]; [16]): 9e-09 M; Bind B*58:01 (HLA-B*58:01 [4]; [17]): 2%; Bind A*24:02 (HLA-A*24:02 [5]; [18]): 54%; Bind C*07:01 (HLA-C*07:01; [19]): 24%; Bind A*68:01 (HLA-A*68:01; [20]): 0%
SMAGSSAMI | 14 | 24 | – | 0 | 45 | 2E -07 M | 95 | 52 | 0 | 0 | Bind A*02:01 (HLA-A*02:01 [1]): 81; O-rate B*58:01 (t1/2) (HLA-B*58:01 [10]): 96 min; Aff B*58:01 (ED50) (HLA-B*58:01 [8]): 2E -07 M; O-rate A*30:02 (t1/2) (HLA-A*30:02 [11]): 78 min; Aff A*30:02 (ED50) (HLA-A*30:02 [12]): 9e-08 M
TYKW ETFLT | 3 | 30 | 36 | 0 | 13 | 2e-06 M | 0 | 118 | 0 | 4 | –
YWGAQLNAM | 12 | 30 | 11 | 0 | 63 | 8e-09 M | 0 | 113 | 0 | 16 | –
